Measured values from publication PMC6158189, “A pharmacological probe identifies cystathionine β-synthase as a new negative regulator for ferroptosis” (Cell Death & Disease, 2018).
“And” between values parts separate entries of the source, which are not always exact repeats. Equal entries are not always repeated.

Tests used:
HepG2 cells = test: lipid ROS (BODIPY 581/591 C11, flow cytometry); assay type: cell-based, human; conditions: 24 h, HepG2
Description: (§1) To detect lipid peroxidation upon treatment with CH004, HepG2 cells or mouse embryonic fibroblasts (MEF) were seeded in 12-well plates with ~ 1.8 × 10^5 cells per well for 24 h. After treatment with the inhibitor for another 24 h, cells were stained with BODIPY® 581/591 C11 (Invitrogen) for 1 h at a final concentration of 2 μM at 37 °C[57]. The cells were then resuspended in an appropriate amount of PBS after being washed once with PBS. Lipid peroxidation, i.e., lipid ROS, was analyzed by detection of the fluorescence using an LSR Fortessa flow cytometer. The data were recorded at 530/30 nm (green fluorescent) and 670/30 nm (red fluorescent) wavelengths after excitation at 488 nm. A minimum of 20000 events was used for the analysis. All the experiments were independently repeated twice in triplicate.
Figure S15. The mode of actions for CH004 in cells. […] Indicated HEK293T stable cell lines were treated with CH004 at a concentration of 10 µM for 24 h, and the cell viability was then measured using the CellTiter96® Aqueous One Solution Cell Proliferation Assay (Promega). Means ± SDs (n=3). (B-C) CH004 or erastin triggers ferroptosis in mouse embryonic fibroblasts (MEF). WT MEF cells were treated with CH004 or erastin at indicated concentrations in the presence or the absence of 500 µM DFO for 24 h before measuring the lipid ROS with 2 μM BODIPY® 581/591 C11 (Materials and methods). […] Erastin at micromolar concentrations were incubated with HepG2 cells for 24 h before measuring the lipid ROS (see above and Materials and methods). […] Means ± SDs (n=3). […] CH004 or erastin at a concentration of 20 µM was incubated with HepG2 cells for 48 h or 72 h in the presence or the absence of 100 µM DFO. The cell viability was accordingly quantified using the CellTiter96® Aqueous One Solution Cell Proliferation Assay (Promega) and the results were shown as percentages of DMSO (control, 100%). Means ± SDs (n=3). All the experiments were independently repeated at least twice and one representative result is present. Table S1 The inhibitory effects of CH004 on purified hCBS, hCSE and hDDC.

[1] = system: mouse embryonic fibroblasts (MEF); test: lipid ROS (BODIPY 581/591 C11, flow cytometry); assay type: cell-based; conditions: low micromolar concentrations, 24 h
Description: as §1
Figure S15. The mode of actions for CH004 in cells. […] Indicated HEK293T stable cell lines were treated with CH004 at a concentration of 10 µM for 24 h, and the cell viability was then measured using the CellTiter96® Aqueous One Solution Cell Proliferation Assay (Promega). Means ± SDs (n=3). (B-C) CH004 or erastin triggers ferroptosis in mouse embryonic fibroblasts (MEF). […] The cell viability was accordingly quantified using the CellTiter96® Aqueous One Solution Cell Proliferation Assay (Promega) and the results were shown as percentages of DMSO (control, 100%). […]

H22 cells = test: cell viability (CellTiter 96 Aqueous One); assay type: cell-based, mouse
Description: To measure cell viability and cytotoxicity, HepG2, HEK293T, Huh-7, H22, Panc-28, HCT116 and MDA-MB-231 cells were seeded at a density of ~ 2 × 10^4 cells per well in 96-well plates (Coring, NY, USA) for one day, followed by incubation with DMSO or various concentrations of tested compound for indicated times. Then, the cells were collected to measure the cell viability using the CellTiter 96® Aqueous One Solution Cell Proliferation Assay (Promega, G3581) according to the standard protocols.
Figure S11. The effects of CH004 on cell viability in various types of cancer cell lines. (A) Dose-dependent curves of CH004 on cell viability of HepG2 cells (▲), HEK293T cells (○). Percentages of cell viability of CH004 obtained in Figure 4a were fitted to the non-linear equation using GraphPad Prism 5 to get the IC50 values of CH004 in respective cell lines. Means ± SDs (n=3). […] (B) MDA-MB-231 (breast cancer cell cline), HCT116 (colon cancer), Panc-28 cells (pancreas cancer), Huh7 cells (hepatocellular carcinoma) and H22 (mouse liver cancer) were incubated with DMSO (control) or indicated concentrations of CH004 for 24 h in a 96-well plate before assessing cell viability using the CellTiter96® Aqueous One Solution Cell Proliferation Assay (Promega). The data are shown as percentages of control (DMSO, 100%). Means ± SDs (n=3). (C) The dose-dependent curve of CH004 on cell viability. […]

hCBS-FL = biological target: T1, hCBS-FL (Homo sapiens, UniProt P35520); test: purified hCBS full-length enzyme assay; assay type: biochemical; parameters: human CBS or hCSE full-length (CBS-FL or CSE) was subcloned into pGEX-KG, pcDNA3 or pCDH vector; GST (N); made in house; host or cells: E. coli BL21; conditions: standard conditions
T1 sequence (P35520 1-551): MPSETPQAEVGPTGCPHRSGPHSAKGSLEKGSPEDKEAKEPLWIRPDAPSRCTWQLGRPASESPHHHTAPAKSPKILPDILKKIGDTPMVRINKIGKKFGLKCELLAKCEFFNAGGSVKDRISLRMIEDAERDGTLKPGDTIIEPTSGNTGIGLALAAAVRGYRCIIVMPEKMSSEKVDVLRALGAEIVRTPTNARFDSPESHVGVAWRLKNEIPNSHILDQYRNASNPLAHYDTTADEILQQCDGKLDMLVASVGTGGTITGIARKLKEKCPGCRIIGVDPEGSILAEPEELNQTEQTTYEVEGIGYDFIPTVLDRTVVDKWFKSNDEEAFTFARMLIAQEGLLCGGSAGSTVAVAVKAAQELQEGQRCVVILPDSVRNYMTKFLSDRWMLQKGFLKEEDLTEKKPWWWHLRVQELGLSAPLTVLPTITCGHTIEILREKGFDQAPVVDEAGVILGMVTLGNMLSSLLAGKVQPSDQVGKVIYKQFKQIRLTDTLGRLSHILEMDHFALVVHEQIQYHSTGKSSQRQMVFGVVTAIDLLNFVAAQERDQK
Description: The IC50 values of CH004 for hCBS-413, hCBS-413 mutants, hCBS-FL, hCSE or hDDC were determined according to the standard assay conditions otherwise indicated.
^2The IC50 were determined for hCBS-FL.

SMILES: Cn1nc(Cc2ccccc2)nc2c(=O)n(C)c(=O)nc1-2 [CH004, 3-benzyl-1,6-dimethylpyrimido[5,4-e][1,2,4]triazine-5,7(1H,6H)-dione]
- increase of lipid ROS (HepG2 cells; 10 μM): ~ 250%
- lipid peroxidation (lipid ROS), dose dependence (HepG2 cells): dose-dependently increased
- induction of ferroptosis (lipid ROS) in MEF [1]: ~2 fold
- IC50 (H22 cells; 24 h): ~13 µM
- IC50 (H22 cells; Mus musculus, H22, 24 h): 12.9 ± 0.7 µM
- IC50 (hCBS-FL): ~0.59 µM and 0.59 µM
